Reference: PubChem BioAssay (NCI)
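A five-concentration, 48-hour dose response in 96-well plates underlies each endpoint, interpolated linearly between surrounding concentrations. TGI marks complete inhibition of growth.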

Legend:
Test in all cases: growth of human tumour cells (NCI), 48 h
HOP-62 NSCLC = tested on: HOP-62 NSCLC
UACC-257 melanoma = tested on: UACC-257 melanoma
M19-MEL melanoma = tested on: M19-MEL melanoma
NCI-H522 lung = tested on: NCI-H522 lung
DLD-1 colon = tested on: DLD-1 colon
HL-60(TB) leukemia = tested on: HL-60(TB) leukemia
KM20L2 colon = tested on: KM20L2 colon
KM12 colon = tested on: KM12 colon
NCI-H460 lung = tested on: NCI-H460 lung
RXF 393 renal = tested on: RXF 393 renal
DMS 114 small cell lung = tested on: DMS 114 small cell lung
MOLT-4 leukemia = tested on: MOLT-4 leukemia
COLO 205 colon = tested on: COLO 205 colon
U251 CNS = tested on: U251 CNS
HOP-18 NSCLC = tested on: HOP-18 NSCLC
CCRF-CEM leukemia = tested on: CCRF-CEM leukemia
SF-539 CNS = tested on: SF-539 CNS
SW-620 colon = tested on: SW-620 colon
HOP-92 NSCLC = tested on: HOP-92 NSCLC
SK-OV-3 ovarian = tested on: SK-OV-3 ovarian
A549 NSCLC = tested on: A549 NSCLC
HCT-15 colon = tested on: HCT-15 colon
HCC-2998 colon = tested on: HCC-2998 colon
SK-MEL-5 melanoma = tested on: SK-MEL-5 melanoma
OVCAR-5 ovarian = tested on: OVCAR-5 ovarian
SNB-19 CNS = tested on: SNB-19 CNS
RXF-631 renal = tested on: RXF-631 renal
UO-31 renal = tested on: UO-31 renal
786-0 renal = tested on: 786-0 renal
DMS 273 small cell lung = tested on: DMS 273 small cell lung
TK-10 renal = tested on: TK-10 renal
OVCAR-4 ovarian = tested on: OVCAR-4 ovarian
SN12C renal = tested on: SN12C renal
SF-295 CNS = tested on: SF-295 CNS
LXFL 529 NSCLC = tested on: LXFL 529 NSCLC
SNB-75 CNS = tested on: SNB-75 CNS
CAKI-1 renal = tested on: CAKI-1 renal
XF 498 CNS = tested on: XF 498 CNS
SF-268 CNS = tested on: SF-268 CNS
ACHN renal = tested on: ACHN renal
HT29 colon = tested on: HT29 colon
IGROV1 ovarian = tested on: IGROV1 ovarian
OVCAR-8 ovarian = tested on: OVCAR-8 ovarian
A498 renal = tested on: A498 renal
LOX IMVI melanoma = tested on: LOX IMVI melanoma
EKVX NSCLC = tested on: EKVX NSCLC
UACC-62 melanoma = tested on: UACC-62 melanoma
K-562 leukemia = tested on: K-562 leukemia
OVCAR-3 ovarian = tested on: OVCAR-3 ovarian
MALME-3M melanoma = tested on: MALME-3M melanoma
SK-MEL-2 melanoma = tested on: SK-MEL-2 melanoma
NCI-H226 lung = tested on: NCI-H226 lung
M14 melanoma = tested on: M14 melanoma
SNB-78 CNS = tested on: SNB-78 CNS
RPMI-8226 leukemia = tested on: RPMI-8226 leukemia
HCT-116 colon = tested on: HCT-116 colon
NCI-H23 lung = tested on: NCI-H23 lung
SK-MEL-28 melanoma = tested on: SK-MEL-28 melanoma

Work on `N#Cc1c(C(N)=O)ncn1Cc1ccccc1` yielded a TGI (HOP-62 NSCLC) greater than 100 µM, a TGI (UACC-257 melanoma) greater than 100 µM and a TGI (M19-MEL melanoma) greater than 100 µM. For the same compound, the TGI (NCI-H522 lung) was greater than 100 µM, the TGI (DLD-1 colon) was greater than 100 µM and the TGI (HL-60(TB) leukemia) was greater than 100 µM. It also gave a TGI (KM20L2 colon) greater than 100 µM, a TGI (KM12 colon) greater than 100 µM and a TGI (NCI-H460 lung) greater than 100 µM. It also gave a TGI (RXF 393 renal) greater than 100 µM, a TGI (DMS 114 small cell lung) greater than 100 µM and a TGI (MOLT-4 leukemia) greater than 100 µM. The TGI (COLO 205 colon) was greater than 100 µM, the TGI (U251 CNS) was greater than 100 µM and the TGI (HOP-18 NSCLC) was greater than 100 µM. For the same compound, the TGI (CCRF-CEM leukemia) was greater than 100 µM, the TGI (SF-539 CNS) was greater than 100 µM and the TGI (SW-620 colon) was greater than 100 µM. For the same compound, the TGI (HOP-92 NSCLC) was greater than 100 µM, the TGI (SK-OV-3 ovarian) was greater than 100 µM and the TGI (A549 NSCLC) was greater than 100 µM. The TGI (HCT-15 colon) was greater than 100 µM, the TGI (HCC-2998 colon) was greater than 100 µM and the TGI (SK-MEL-5 melanoma) was greater than 100 µM. The TGI (OVCAR-5 ovarian) was greater than 100 µM, the TGI (SNB-19 CNS) was greater than 100 µM and the TGI (RXF-631 renal) was greater than 100 µM. The TGI (UO-31 renal) was greater than 100 µM, the TGI (786-0 renal) was greater than 100 µM and the TGI (DMS 273 small cell lung) was greater than 100 µM. The TGI (TK-10 renal) was greater than 100 µM, the TGI (OVCAR-4 ovarian) was greater than 100 µM and the TGI (SN12C renal) was greater than 100 µM. The TGI (SF-295 CNS) was greater than 100 µM, the TGI (LXFL 529 NSCLC) was greater than 100 µM and the TGI (SNB-75 CNS) was greater than 100 µM. The TGI (CAKI-1 renal) was greater than 100 µM, the TGI (XF 498 CNS) was greater than 100 µM and the TGI (SF-268 CNS) was greater than 100 µM. For the same compound, the TGI (ACHN renal) was greater than 100 µM, the TGI (HT29 colon) was greater than 100 µM and the TGI (IGROV1 ovarian) was greater than 100 µM. For the same compound, the TGI (OVCAR-8 ovarian) was greater than 100 µM, the TGI (A498 renal) was greater than 100 µM and the TGI (LOX IMVI melanoma) was greater than 100 µM. The TGI (EKVX NSCLC) was greater than 100 µM, the TGI (UACC-62 melanoma) was greater than 100 µM and the TGI (K-562 leukemia) was greater than 100 µM. It also gave a TGI (OVCAR-3 ovarian) greater than 100 µM, a TGI (MALME-3M melanoma) greater than 100 µM and a TGI (SK-MEL-2 melanoma) greater than 100 µM. The TGI (NCI-H226 lung) was greater than 100 µM, the TGI (M14 melanoma) was greater than 100 µM and the TGI (SNB-78 CNS) was greater than 100 µM. It also gave a TGI (RPMI-8226 leukemia) greater than 100 µM, a TGI (HCT-116 colon) greater than 100 µM and a TGI (NCI-H23 lung) greater than 100 µM.
In the case of `O=C1CCC(NC(=O)Cc2ccc(O)cc2)C(=O)N1` (configuration not stated), the TGI (UACC-257 melanoma) is reported as greater than 2500 µM, the TGI (M19-MEL melanoma) is reported as greater than 2500 µM and the TGI (NCI-H522 lung) is reported as greater than 2500 µM. The TGI (KM20L2 colon) was greater than 2500 µM, the TGI (KM12 colon) was greater than 2500 µM and the TGI (NCI-H460 lung) was greater than 2500 µM. For the same compound, the TGI (DMS 114 small cell lung) was greater than 2500 µM, the TGI (COLO 205 colon) was greater than 2500 µM and the TGI (U251 CNS) was greater than 2500 µM. It also gave a TGI (HOP-18 NSCLC) greater than 2500 µM, a TGI (SK-MEL-28 melanoma) greater than 2500 µM and a TGI (SW-620 colon) greater than 2500 µM. It also gave a TGI (HOP-92 NSCLC) greater than 2500 µM, a TGI (SK-OV-3 ovarian) greater than 2500 µM and a TGI (A549 NSCLC) greater than 2500 µM. It also gave a TGI (HCT-15 colon) greater than 2500 µM, a TGI (SK-MEL-5 melanoma) greater than 2500 µM and a TGI (OVCAR-5 ovarian) greater than 2500 µM. For the same compound, the TGI (SNB-19 CNS) was greater than 2500 µM, the TGI (RXF-631 renal) was greater than 2500 µM and the TGI (UO-31 renal) was greater than 2500 µM. It also gave a TGI (DMS 273 small cell lung) greater than 2500 µM, a TGI (TK-10 renal) greater than 2500 µM and a TGI (OVCAR-4 ovarian) greater than 2500 µM. It also gave a TGI (SN12C renal) greater than 2500 µM, a TGI (SF-295 CNS) greater than 2500 µM and a TGI (LXFL 529 NSCLC) greater than 2500 µM. For the same compound, the TGI (SNB-75 CNS) was greater than 2500 µM, the TGI (CAKI-1 renal) was greater than 2500 µM and the TGI (XF 498 CNS) was greater than 2500 µM. For the same compound, the TGI (SF-268 CNS) was greater than 2500 µM, the TGI (ACHN renal) was greater than 2500 µM and the TGI (HT29 colon) was greater than 2500 µM. The TGI (IGROV1 ovarian) was greater than 2500 µM, the TGI (OVCAR-8 ovarian) was greater than 2500 µM and the TGI (A498 renal) was greater than 2500 µM. For the same compound, the TGI (LOX IMVI melanoma) was greater than 2500 µM, the TGI (EKVX NSCLC) was greater than 2500 µM and the TGI (UACC-62 melanoma) was greater than 2500 µM. It also gave a TGI (OVCAR-3 ovarian) greater than 2500 µM, a TGI (NCI-H226 lung) greater than 2500 µM and a TGI (M14 melanoma) greater than 2500 µM. The TGI (SNB-78 CNS) was greater than 2500 µM, the TGI (HCT-116 colon) was greater than 2500 µM and the TGI (NCI-H23 lung) was greater than 2500 µM.
